Values joined by “and” are separate entries in the source; they are usually repeats but may differ in a detail not shown here. Identical values can stand only once. “Also recorded” adds a separate entry of the source. Like-named read-outs stand apart in the source and are kept apart here.
Columns and labels:
SUMO1^Δ15 = target: T1, SUMO1^Δ15 (Homo sapiens, UniProt P63165); experiment: Differential scanning fluorimetry (DSF) thermal shift; assay type: binding; conditions: 2 μM SUMO1^Δ15, fisetin 20 to 200 μM
T1 construct: encoding amino acids 1–97 of mature human SUMO1; made in house; host or cells: E. coli BL21 Rosetta (DE3)
Procedure: Here we used a variant of the human SUMO1 called SUMO1^Δ15 in which the N-terminal 15 amino acids of SUMO1 are removed. The first 15 amino acids of human SUMO1 are weakly conserved and reported to be unstructured, and so therefore might contribute to its instability. […] We next compared SUMO1^Δ15 directly with wild-type SUMO1.
Fluorescence-based thermal shift assays known as differential scanning fluorimetry (DSF) were performed following the general protocol described in [28]. In short, 20 μl reactions were prepared with 2 μM human SUMO1 or SUMO1^Δ15 protein exchanged in DSF buffer (50 mM Tris-Cl pH 8.0, 150 mM NaCl, 10% glycerol), 10X SYPRO Orange (ThermoFisher Scientific, Waltham, MA), and 0.3 μl of DMSO control or flavonoid dissolved in DMSO. PCR plates (white non-skirted, 96-well) were sealed with optical film, centrifuged, and incubated at 4 °C for 30 min prior to analysis. Thermal scanning (20°C for 30 s, followed by ramping from 20 °C to 90 °C at 0.5 °C/15 s) was performed using a real-time PCR setup (CFX384 Touch, Biorad, Hercules, CA) with filter sets for measurement of relative fluorescence units (RFU) at 0.5°C intervals. Tm was calculated from the maxima of the first derivative of RFU/temperature using GraphPad Prism7. For the HSF1 denaturation experiment, recombinantly expressed and affinity purified human HSF1 was exchanged in DSF buffer. […]

human SUMO1 [1] = target: T2, human SUMO1 (Homo sapiens, UniProt P63165); experiment: SPR secondary screen / dose-dependent binding; design: key to SPR Screens 2°: ✓: dose-dependent saturation kinetics; ×: no indication of saturation kinetics
T2 construct: encoding amino acids 1–97 of mature human SUMO1; host or cells: E. coli BL21 Rosetta (DE3)

human SUMO1 [2] = target: T2, human SUMO1; experiment: Surface plasmon resonance (SPR) primary screen; assay type: binding;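 further: recombinant human SUMO1 amine-coupled to a sensor chip, blank activated and quenched reference flow cell, flavonoids injected 2 min then 1 min dissociation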
human SUMO1 [3] = target: T2, human SUMO1; experiment: Differential scanning fluorimetry (DSF) thermal shift; assay type: binding

T2 sequence (P63165 1-97): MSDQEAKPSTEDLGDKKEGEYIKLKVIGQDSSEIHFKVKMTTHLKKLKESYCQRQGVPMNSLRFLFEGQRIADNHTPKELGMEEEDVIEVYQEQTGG
T1 sequence (P63165 with tags, fused parts or gaps limits assumed): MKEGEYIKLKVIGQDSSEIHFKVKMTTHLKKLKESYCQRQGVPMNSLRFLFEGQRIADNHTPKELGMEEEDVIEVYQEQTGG

SMILES: O=c1c(O)c(-c2ccc(O)c(O)c2)oc2cc(O)ccc12 [Fisetin, 3,3',4',7-tetrahydroxyflavone]
- dose-dependent effect on DSF thermogram of SUMO1^Δ15 (SUMO1^Δ15): thermal destabilization
- saturation binding in SPR secondary screen (human SUMO1 [1]; Fig 2A-H): exhibited binding that approached saturation
- Kd (human SUMO1 [1]; fisetin ~12 to 250 μM, Fig 2I, average of six replicates, read-out: Kd (SPR, extended range of concentrations)): 228 µM and ~228 µM
- SPR Screens 2° (human SUMO1 [1]; five concentrations 31.25-500 μM): ✓
- Kd (human SUMO1 [1]; one-site hyperbola fit, 31.25-500 μM flavonoid, Fig 2A-C, read-out: Kd (SPR secondary screen)): 124 µM and ~124 µM
- Kd (human SUMO1 [1]; range over the two experiments, Fig 2A and 2I, read-out: estimated Kd ranging (SPR)): 124 to 228 µM
- SPR Screens 1° (human SUMO1 [2]; 500 μM flavonoid in DMSO, cut-off of %RUmax of ~15): ✓ (%RUmax with binding activity above cut-off)
- interaction in SPR primary screen (human SUMO1 [2]; 500 μM, %RUmax above threshold of ~15%): interacted with SUMO1 in the primary screen
- %RUmax (human SUMO1 [2]; SPR primary screen, 500 μM flavonoid in DMSO, (Mean RU/RUmax)*100): 18.9%
- ΔTm at 300 µM (human SUMO1 [3]): < 2 °C
- effect on DSF thermogram / thermal stability of SUMO1 (human SUMO1 [3]; 2 μM SUMO1, 300 μM flavonoid): cause unfolding of human SUMO1; also recorded: unfolding of the protein at ambient temperature

— publication PMC7292393 (PLoS ONE, 2020)
